Earlier results in patent publication US20250134380A1, “DETECTION AND LOCALIZATION OF DISEASE UTILIZING FLUORESCENCE SPECTRA OF EXOGENOUS FLUOROPHORES” (PREVIEW MEDICAL INC., priority 2022, published 2025).

Tested on: hyperthermia treated tumor
Details: animal models; hyperthermia treated vs non-hyperthermia treated tumors

CC1(C)C(/C=C/C=C/C=C/C=C2\N(CCCCS(=O)(=O)O)c3ccc4ccccc4c3C2(C)C)=[N+](CCCCS(=O)(=O)[O-])c2ccc3ccccc3c21 [ICG, Indocyanine green]
ICG uptake in hyperthermia treated tumor relative to non-hyperthermia treated tumors: 1.23 times
